{"source": "patent US20040071787A1", "about": "“Pharmacologic, therapeutic and diagnostic regulation of FGF-1 export” (Maine Medical Center Research Institute, priority 1996, published 2004)", "molecules": {"B1": {"name": "recombinant human p40 Syn-1 (other, UniProt P21579 104-422, looked up)", "chain": "MKDVKDLGKTMKDQALKDDDAETGLTDGEEKEEPKEEEKLGKLQYSLDYDFQNNQLLVGIIQAAELPALDMGGTSDPYVKVFLLPDKKKKFETKVHRKTLNPVFNEQFTFKVPYSELGGKTLVMAVYDFDRFSKHDIIGEFKVPMNTVDFGHVTEEWRDLQSAEKEEQEKLGDICFSLRYVPTAGKLTVVILEAKNLKKMDVGGLSDPYVKIHLMQNGKRLKKKKTTIKKNTLNPYYNESFSFEVPFEQIQKVQVVVTVLDYDKIGKNDAIGKVFVGYNSTGAELRHWSDMLANPRRPIAQWHTLQVEEEVDAMLAVKK", "notes": "domain: p40 form of Syn-1; also called p45; p40/45"}}, "key": {"[1]": {"test_system": "FGF-1-NIH 3T3 transfectants", "conditions": "agent in the media of cultured cells exposed to heat shock; cited from earlier work"}, "[2]": {"test_system": "NIH 3T3 FGF-1-β-gal:p65 Syn-1 co-transfectants", "assay": "Effects of pharmacologic inhibitors on heat shock induced release of p40", "type": "cell-based, murine", "conditions": "heat shock 42° C. for 100 min", "protocol": "(§1) Stable NIH 3T3 FGF-1:β-gal transfectants were co-transfected with either p65 Syn-1, p65(Δ120-214) or p40 and maintained in Dulbecco's modified Eagle's medium (DMEM, GIBCO-BRL, Grand Island, N.Y.) containing 10% (v/v) bovine calf serum (BCS, Hyclone, Logan, Utah), 1× antibiotic-antimycotic (GIBCO-BRL) and 200 μg/ml G418 (GIBCO-BRL) and 250 μg/ml hygromycin (Boehringer Mannheim, Indianapolis, Ind.) on sterile tissue culture dishes coated with 10 μg/cm^2 human fibronectin prepared from human plasma by affinity adsorption to a column of immobilized type I collagen by methods well known in the art. Confluent monolayers of co-transfectants were rinsed with DMEM containing 4 U/ml heparin (Upjohn, Kalamazoo, Mich.) and subjected to heat shock (42° C. for 100 min) in DMEM containing 4 U/ml heparin and 0.5% BCS as described (Jackson et al., Proc. Nat. Acad. Sci. USA 89:10691, 1992). For each Syn-1 construct, three independent co-transfectant clones were tested.\nFollowing heat shock, conditioned media were collected, filtered using 0.2 μm filters (Millipore, Bedfore, Mass. ) according to the supplier's recommendations, and activated with 0.1% (w/v) dithiothreitol (DTT, Sigma, St. Louis, Mo.) for 2 h at 37° C. (Jackson et al., J. Biol. Chem. 270:33, 1995). Conditioned media were then passed over a column of heparin-Sepharose™ CL-6B (Pharmacia Biotech, Piscataway, N.J.) equilibrated and eluted with 50 mM Tris pH 7.4 containing 10 mM EDTA (TE buffer, TEB). Following TEB washing, the column was eluted with 1.5 M NaCl in TEB and the eluate collected and concentrated using a Centricon™ 10 concentrator (Amicon, Inc., Beverly, Mass.) according to the manufacturer's instructions. Aliquots of the concentrated eluates were analyzed by 10% sodium dodecylsulfate polyacrylamide gel electrophoresis (SDS-PAGE) as described (Jackson et al., J. Biol Chem. 270:33, 1995). Electrophoretically separated samples were further characterized by immunoblot analysis as described (Jackson et al., Proc. Nat. Acad. Sci. USA 89:10691, 1992). […]"}, "[3]": {"test_system": "3T3 cell line transfected with a chimeric FGF-1 construct having a functional signal sequence", "assay": "Secretion by 3T3 cell line transfected with chimeric FGF-1 construct having a functional signal sequence (classical ER-Golgi pathway)", "type": "cell-based", "conditions": "not shown", "from_the_text": "In a concentration dependent fashion, amlexanox inhibited the release of both FGF-1-β-gal and Syn-1 from NIH 3T3 FGF-1-β-gal:p65 Syn-1 co-transfectants in response to heat shock (FIG. 17). […] A 3T3 cell line transfected with a chimeric FGF-1 construct having a functional signal sequence for secretion via the classical ER-Golgi protein secretory pathway (Forough et al., J. Biol. Chem. 268:2960, 1993) was unaffected by amlexanox by several phenotypic criteria, including secretory activity (not shown)."}, "[4]": {"test_system": "NIH 3T3 FGF-1-β-gal:p65 Syn-1 co-transfectants", "assay": "Heat shock induced release of FGF-1-β-gal and Syn-1 from co-transfectants, immunoblot of heparin binding fraction of conditioned medium", "type": "cell-based, murine", "conditions": "heat shock 41.5° C. for 90 min; concentration dependent; FIG. 17", "protocol": "as §1, with “Confluent monolayers of co-transfectants were rinsed with DMEM containing 4 U/ml heparin (Upjohn, Kalamazoo, Mich.) and subjected to heat shock (42° C. for 100 min) in DMEM containing 4 U/ml heparin and 0.5% BCS as described (Jackson et al., Proc.” left out, “For each Syn-1 construct, three independent co-transfectant clones were tested.” left out\nFollowing heat shock, conditioned media were collected, filtered using 0.2 μm filters (Millipore, Bedfore, Mass. ) according to the supplier's recommendations, and activated with 0.1% (w/v) dithiothreitol (DTT, Sigma, St. Louis, Mo.) for 2 h at 37° C. […] Aliquots of the concentrated eluates were analyzed by 10% sodium dodecylsulfate polyacrylamide gel electrophoresis (SDS-PAGE) as described (Jackson et al., J. Biol Chem. 270:33, 1995). […]\nIn this Example, the effects of members of the amlexanox family of pharmacologic agents known to bind to S100A13 (Oyama et al., Biochem. Biophys. Res. Commun. 240:341, 1997) were evaluated in cell based assay systems for export of FGF1:Syn-1 complexes in vitro. […]"}, "[5]": {"test_system": "NIH 3T3 FGF-1 transfectants", "assay": "Heat shock induced FGF-1 and p40 Syn-1 release by FGF-1 transfectants, immunoblot of conditioned media", "type": "cell-based, murine", "protocol": "Chemical derivatives of amlexanox were tested for their effects on FGF-1 and p40 Syn-1 release by NIH 3T3 FGF-1 transfectants in response to heat shock. Media were conditioned by three 150 mm dishes of NIH3T3 cells stably transfected with FGF-1α (residues 21-154) after exposure to 41.5° C. for 90 min with or without amlexanox or the indicated amlexanox derivative. The media were collected and resolved by 12.5% acrylamide SDS-PAGE under reducing conditions followed by immunoblot analysis for FGF-1 as described herein.\n(FIG. 19: Lane 1: media derived from NIH3T3 cell FGF-1 transfectants following heat shock in the absence of any drug; Lanes 2 through 4: media derived from NIH3T3 cell FGF-1 transfectants following heat shock in the presence of 1×10^−6 M, 1×10^−5 M, 1×10^−4 M, A673 (amlexanox) respectively; Lanes 5 through 7: media derived from NIH3T3 cell FGF-1 transfectants following heat shock in the presence of 1×10^−6 M, 1×10^−5 M, 1×10^−4 M AA617 respectively; Lanes 8 through 10: media derived from NIH3T3 cell FGF-1 transfectants following heat shock in the presence of 1×10^−6 M, 1×10^−5 M, 1×10^−4 M AA648 respectively; Lanes 11 through 13: media derived from NIH3T3 cell FGF-1 transfectants following heat shock in the presence of 1×10^−6 M, 1×10^−5 M, 1×10^−4 M, AA777 respectively; Lane 14: media derived from NIH3T3 cell FGF-1 transfectants maintained at 37° C. for 90 min; Lane 15, 50 ng of recombinant human FGF-1α. The structures of amlexanox (AA673) and its derivatives are also shown."}, "[6]": {"test_system": "NIH-3T3 FGF-1-β-gal:p40 Syn-1 co-transfectants", "assay": "p40 Syn-1 release from p40 Syn-1 co-transfectants at 37° C. or after heat shock, Syn-1 immunoblot", "type": "cell-based, murine", "conditions": "FIG. 18", "protocol": "Amlexanox was also tested for an effect on the heat shock response of NIH-3T3 FGF-1-β-gal:p40 Syn-1 co-transfectants described above in Example 11. Media were conditioned by two 150 mm dishes of NIH3T3 cells stably co-transfected with FGF-1:β-Gal and rat p40 Syn-1 after exposure to temperature stress (41.5° C., 90 min) with or without treatment. The media were collected and resolved by 10% acrylamide SDS-PAGE under reducing conditions followed by immunoblot analysis for Syn-1 as described herein and in the cited references.\n(FIG. 18: Lane 1: media derived from NIH3T3 cell FGF-1:β-Gal and p40 Syn1 co-transfectants maintained at 37° C. for 90 min. Lane 2: media derived from NIH3T3 cell FGF-1:β-gal and p40 Syn-1 co-transfectants following heat shock. Lanes 3 and 4: media derived from NIH3T3 cell FGF-1:β-gal and p40 Syn-1 co-transfectants maintained at 37° C. in the presence of 5×10^−5M, and […] AA673 (amlexanox) respectively. Lane 5: media derived from NIH3T3 cell FGF-1:β-gal and p40 Syn-1 co-transfectants following heat shock in the presence of 3×10^−4M, AA673. Lane 6: 50 ng of recombinant rat p40 Syn-1.)"}, "[7]": {"target": "the molecule itself", "assay": "Cu2+ oxidation, non-reduced SDS-PAGE", "protocol": "Purified FGF-1 and p40 Syn-1 were incubated with, and without, Cu²⁺ for 10 min. and resolved on two non-reduced SDS-PAGE gels (A and B), as described by Maciag et al., Recent Prog. Horm. Res. 49:105-123 (1993). The systems were identical except gel 5B was immunoblotted with FGF-1 antibody, whereas gel 5A was not.\nHowever, when FGF-1 and p40 Syn-1 were added together, non-reduced SDS-PAGE was able to resolve a unique component with an apparent Mᵣ˜66,000 (FIG. 6A). To determine whether this band contained FGF-1, this experiment was repeated and analyzed by FGF-1 immunoblot analysis."}, "[8]": {"conditions": "41.5° C. for 90 min, 1×10^−6 M, 1×10^−5 M, 1×10^−4 M, FIG. 19"}}, "note": "Entries after “also recorded” stand apart in the source; their conditions may differ. Starred links: 1 amine or outer side, 2 acyl side, 3 side chain; linkers in the order of their positions; H or OH if unused. Positions of bridges follow the written chain, without caps; N, C: chain ends. Non-standard residues stand in square brackets, D forms with d. Residues, ends and D or L forms follow the SMILES beside them. Chains are numbered I, II in the order given. Actinocin(9to1) = Cc1c2oc3c(C)ccc(C(=O)[*:1])c3nc-2c(C(=O)[*:2])c(N)c1=O; NMeV = CN[C@H](C(=O)O)C(C)C; Sar = CNCC(=O)O", "data": [{"molecule": "Cc1c2oc3c(C)ccc(C(=O)N[C@@H]4C(=O)N[C@H](C(C)C)C(=O)N5CCC[C@H]5C(=O)N(C)CC(=O)N(C)[C@@H](C(C)C)C(=O)O[C@@H]4C)c3nc-2c(C(=O)N[C@@H]2C(=O)N[C@H](C(C)C)C(=O)N3CCC[C@H]3C(=O)N(C)CC(=O)N(C)[C@@H](C(C)C)C(=O)O[C@@H]2C)c(N)c1=O", "note": "[actinomycin D] (I: T[dV]P[Sar][NMeV] / II: T[dV]P[Sar][NMeV]; ester I:1-I:C, II:1-II:C; linker I:N-II:N via Actinocin(9to1))", "values": [{"measurement": "release of latent FGF-1", "setting": "[1]", "value": "inhibited"}, {"measurement": "heat shock induced release of p40", "setting": "[2]", "value": "inhibited"}]}, {"molecule": "CC(C)c1ccc2oc3nc(N)c(C(=O)O)cc3c(=O)c2c1", "note": "[amlexanox]", "values": [{"measurement": "effect on phenotypic criteria, including secretory activity", "setting": "[3]", "value": "unaffected"}, {"measurement": "release of FGF-1-β-gal in response to heat shock", "setting": "[4]", "value": "inhibited; also recorded: inhibition"}, {"measurement": "release of Syn-1 in response to heat shock", "setting": "[4]", "value": "inhibited; also recorded: inhibition"}, {"measurement": "FGF-1 release in response to temperature stress", "setting": "[5]; [8]", "value": "inhibition"}, {"measurement": "p40 Syn-1 release in response to temperature stress", "setting": "[5]; [8]", "value": "inhibition"}, {"measurement": "FGF-1 release in response to heat shock", "setting": "[5]; NIH 3T3 cell line stably transfected with FGF-1 instead of FGF-1-β-gal, not shown", "value": "inhibited FGF-1 release"}, {"measurement": "constitutive release of p40 Syn-1", "setting": "[6]; 37° C., 5×10^−5M and 3×10^−1M AA673", "value": "no effect"}, {"measurement": "enhanced p40 export in response to heat shock", "setting": "[6]; heat shock 41.5° C., 90 min, 3×10^−4M AA673", "value": "did inhibit"}]}, {"molecule": "C[C@H]1CCC/C=C/[C@@H]2C[C@H](O)C[C@H]2[C@H](O)/C=C/C(=O)O1", "note": "[brefeldin A]", "values": [{"measurement": "heat shock induced release of p40", "setting": "[2]", "value": "unaffected"}]}, {"molecule": "C[C@@H]1C[C@@H]([C@H](O)CC2CC(=O)NC(=O)C2)C(=O)[C@@H](C)C1", "note": "[cycloheximide]", "values": [{"measurement": "release of latent FGF-1", "setting": "[1]", "value": "inhibited"}, {"measurement": "heat shock induced release of p40", "setting": "[2]", "value": "inhibited"}]}, {"molecule": "B1", "values": [{"measurement": "binding result", "setting": "[7]", "value": "no binding"}]}]}
